The SangsterLogP compilation

Assay: method code SF, from Hansch, C. & Leo, A. (1987). Log P database [Dataset]. Pomona College Medicinal Chemistry Project.

Compared with `CC(=O)CCC(=O)N(C)c1ccc(S(=O)(=O)N(C)C)cc1`, `O=C(O)Cc1ccc(S(=O)(=O)F)cc1` is higher in logP: 0.2 for the first, 1.86 for the second.

`O=[N+]([O-])c1ccc2cccnc2c1` and `O=[N+]([O-])c1ccc2ncccc2c1` are within 0.2 log units of each other in logP: 1.82 for the first, 1.84 for the second.

Going from `O=C(O)COc1ccc(Cl)c(C(=O)O)c1` to `CCCOc1cccc(C=C(C(C)=O)C(=O)OCC)c1`, the logP rises from 1.07 to 3.34.

Compared with `c1ccc(-n2cccc2)cc1`, `C(=N\c1ccccc1)/c1ccccc1` is lower in logP: 3.08 for the first, 2.82 for the second.

Going from `O=P1(NCCCl)OCCCN1CCCl` (configuration not stated) to `CCCCCCC1CCC(=O)O1` (configuration not stated), the logP rises from 0.86 to 2.72.

Compared with `CCCCOC1NC(=O)NC(=O)C1=[N+]=[N-]` (configuration not stated), `CCC1(C(C)CC(C)O)C(=O)NC(=O)NC1=O` (configuration not stated) is higher in logP: -0.55 for the first, 0.35 for the second.

Compared with `O=c1nc[nH]c(=O)[nH]1`, `O=c1cc2ccccc2n[nH]1` is higher in logP: -1.87 for the first, 0.68 for the second.

Compared with `OCCOc1c(Br)cc(Br)cc1Br`, `OCC(Br)(Br)Br` is lower in logP: 3.42 for the first, 2.1 for the second.

First: CC(C)=NO
Second: CC(N)=S
The logP of the first is higher: 0.12 for the first, -0.26 for the second.

Compared with `NC(=O)c1ccc(C(F)(F)F)cc1`, `CCOc1ccc(C(N)=O)cc1` is lower in logP: 1.71 for the first, 1.3 for the second.

Going from `C1COCCO1` to `OC12CC3CC(CC(C3)C1)C2`, the logP rises from -0.27 to 2.14.

Going from `CN(C)C(=O)Oc1ccccc1[N+](=O)[O-]` to `CN(C)C(=O)Oc1ccccc1Br`, the logP rises from 1.35 to 2.17.

Going from `NC(=O)NN=CCCc1ccccc1` to `O=C(CO)OCc1ccccc1`, the logP falls from 2.32 to 1.12.

`O=Cc1ccsc1` and `O=Cc1cccs1` are within 0.2 log units of each other in logP: 1.01 for the first, 1.02 for the second.

Compared with `Nc1cccc2cc3ccccc3nc12`, `O=C(O)c1cccc(CSc2ccccc2)c1O` is higher in logP: 3.26 for the first, 4.28 for the second.

First: CCN(CC)C(=O)[C@@H]1C=C2c3cccc4[nH]cc(c34)C[C@H]2N(C)C1
Second: COc1cccc(C(=O)N(C)C)c1
The logP of the first is higher: 2.95 for the first, 1 for the second.

Compared with `CCOC(=O)C(=Cc1cccc(OC)c1)C(=O)OCC`, `COc1cccc(C=C(C(N)=O)C(N)=O)c1` is lower in logP: 3.18 for the first, 0.01 for the second.

First: CN(C)c1cnccn1
Second: CCOC(=O)c1ccncc1
The logP of the first is lower: 0.96 for the first, 1.43 for the second.

First: C=CCOc1ccccc1
Second: CNC(=O)N(C)c1ccccc1
The logP of the first is higher: 2.94 for the first, 1.02 for the second.

Compared with `CN(C)/N=N/c1ccccc1C(=O)NNC(=O)CC#N`, `O=C1c2ccccc2C(=O)C1(O)O` is lower in logP: 1.44 for the first, 0.67 for the second.

Going from `O=[N+]([O-])c1cccc(I)c1` to `N#CN=[N+]([O-])c1cccc(Br)c1`, the logP falls from 2.94 to 2.56.

`Cn1c(=O)cnc2ccccc21` and `O=c1[nH]nnc2ccccc12` are within 0.2 log units of each other in logP: 0.79 for the first, 0.83 for the second.

First: N#CC(C#N)=C(c1ccccc1)c1ccccc1
Second: S=C(Nc1ccccc1)c1ccccc1
The logP of the first is higher: 3.55 for the first, 3.03 for the second.

Compared with `CCNc1nc(NC(C)C)nc(SC)n1`, `CCN(CC)CCNc1ccc(C)c(Cl)c1` is higher in logP: 2.98 for the first, 4.14 for the second.

First: CC1OC(=O)c2ccccc21 (configuration not stated)
Second: CC1(C)OC(=O)c2ccccc21
The logP of the first is lower: 1.41 for the first, 1.73 for the second.

First: CC(=O)OCC(=O)[C@@]12OC(C)(C)O[C@@H]1C[C@H]1[C@@H]3C[C@H](F)C4=CC(=O)C=C[C@]4(C)[C@@]3(F)[C@@H](O)C[C@@]12C
Second: C[C@@H]1C[C@H]2[C@@H]3C[C@H](F)C4=CC(=O)C(Cl)=C[C@]4(C)[C@@]3(Cl)[C@@H](O)C[C@]2(C)[C@@]1(O)C(=O)COC(=O)C(C)(C)C
The logP of the first is lower: 3.19 for the first, 4.73 for the second.

Compared with `CN(C)C(=O)CCc1ccco1`, `Cc1ccoc1CN(C)C` is higher in logP: 0.62 for the first, 1.63 for the second.

Compared with `CCc1cnc(C=Cc2ccc([N+](=O)[O-])o2)nc1`, `CCC(C)NC(=O)C=Cc1ccc(Cl)cc1` (configuration not stated) is higher in logP: 1.55 for the first, 3.37 for the second.

Compared with `COc1cc(O)cc(OC)c1`, `COc1cc(Cl)cc(Cl)c1` is higher in logP: 1.64 for the first, 3.74 for the second.

`COc1cc(C=NO)ccc1O` and `COc1cccc([N+]([O-])=NC#N)c1` are within 0.2 log units of each other in logP: 2.16 for the first, 2.24 for the second.

Compared with `CCOP(=S)(OCC)Oc1ncn(-c2ccccc2)n1`, `CC(=O)Oc1ccccc1Br` is lower in logP: 3.55 for the first, 2.2 for the second.

First: O=C1C2(Cl)C3(Cl)C4(Cl)C(Cl)(Cl)C5(Cl)C3(Cl)C1(Cl)C5(Cl)C24Cl (configuration not stated)
Second: COP(=O)(NC(C)(C)C)Oc1cc(Cl)c(Cl)cc1Cl (configuration not stated)
The logP of the first is higher: 5.41 for the first, 3.83 for the second.

Compared with `O=C(Nc1ccccc1)NC1CC(O)C(CO)OC1O` (configuration not stated), `O=C(NC(CO)C(O)c1ccc(NC(=O)C2CC2)cc1)C(Cl)Cl` (configuration not stated) is higher in logP: -0.61 for the first, 0.75 for the second.

First: Cc1c([N+](=O)[O-])cc(C(N)=O)cc1[N+](=O)[O-]
Second: COCC1=Nc2cc(Cl)ccc2S(=O)(=O)N1
The logP of the first is lower: 0.68 for the first, 1.12 for the second.

First: C[C@@H]1C[C@@H]([C@H](O)CC2CC(=O)NC(=O)C2)C(=O)[C@@H](C)C1
Second: CO[C@H]1C=CO[C@@]2(C)Oc3c(C)c(O)c4c(O)c(c(CN5CCN(C)CC5)c(O)c4c3C2=O)NC(=O)/C(C)=C\C=C/[C@@H](C)[C@@H](O)[C@@H](C)[C@H](O)[C@H](C)[C@@H](OC(C)=O)[C@H]1C
The logP of the first is lower: 0.55 for the first, 1.76 for the second.

Compared with `OCCC(F)(F)F`, `CC(=O)OCC(F)(F)F` is higher in logP: 0.39 for the first, 1.18 for the second.

First: NC(=O)CCl
Second: CC(C)CCO[N+](=O)[O-]
The logP of the first is lower: -0.53 for the first, 2.84 for the second.

Going from `C=CC=C` to `COc1ccccc1C=CC(=O)OCCOc1ccc(C=O)cc1OC`, the logP rises from 1.99 to 3.65.

With `CC(=O)Nc1cccs1` the logP was 1.1.
